In patent US20170348258A1, “3-Amino Benzamide Derivative Serving As B-Lactam Auxiliary Antibiotic, Preparation Method and Use Thereof” (THE HONG KONG POLYTECHNIC UNIVERSITY, priority 2014, published 2017):
In brackets after ≈: the same amount, converted by molar mass.

Assays:
B. subtilis 168 = test: Antibacterial susceptibility test (MIC, microbroth dilution); assay type: cell-based; conditions: Bacillus subtilis, 168; 18 hours at 37° C., >90% inhibition of bacterial growth; read-out: MIC, BS 168
Description: (§1) The bacterial strains used in microbial susceptibility test were E. coli, S. aureus 29213 and B. subtilis 168. E. coli and S. aureus 29213 were obtained from the laboratory of the Hong Kong Polytechnic University. B. subtilis 168 was purchased from American Type Culture Collection (USA). The mammalian cell lines L929 (mouse peritoneal fibroblast), LCC6 (a wild type breast cancer cell line), LCC6MDR (P-gp over-expressed breast cancer cell line) were stocks in our department. Nutrient Agar, tryptone and yeast extract were purchased from Oxoid Limited (Nepean, Ontario, Canada). Luria-Bertani (LB) medium was prepared from 2 g tryptone, 1 g yeast extract, and 2 g sodium chloride in 200 ml deionized water and sterilized. Müller-Hinton broth (MHB), cation-adjusted Müller-Hinton broth (MHB) and trypticase soy broth (TSB) for microbial susceptibility test were purchased from Becton, Dickinson and Company (New Jersey, USA). A microplate reader (Bio-Rad Laboratories Model 680) is used to measure bacterial growth and cytotoxicity. An Olympus FSX100® Bio Imaging Navigator Microscope was used to observe the morphology of B. subtilis cell.
(§2) The minimum inhibitory concentration (MIC) of each compound was determined using microbroth dilution method according to the National Committee for Clinical Laboratory Standards (CLSI) guidelines. All Compounds were dissolved in DMSO and diluted in a serial two-fold manner. A single colony of bacterial strain on a TSB agar plate was inoculated in 5 mL MHB or CA-MHB. The bacterial cells were incubated at 37° C. until the optimal density (OD600) of the growing cells reached 1.0. The cells were then diluted to a final concentration of approximately 5×10^5 CFU/mL in a serial two-fold manner in a 96-well microtiter plate (Iwaki, Japan). Compound 3 and PC190723 were used as positive controls. […] Table 1 below summarizes the MIC of all synthesized compounds.

E. coli = test: as above; assay type: cell-based; conditions: Escherichia coli; 18 hours at 37° C., >90% inhibition of bacterial growth
Description: as §1, §2

S. aureus 29213 = test: as above; assay type: cell-based; conditions: Staphylococcus aureus, 29213; 18 hours at 37° C., >90% inhibition of bacterial growth
Description: as §1, §2

B. subtilis 168 cells = test: Effects on the morphology of B. subtilis cells; assay type: cell-based; conditions: for average cell length of B. subtilis: compound at half of MIC (1.56 μM F332, 0.78 μM F361), untreated 3.5±0.7 μm; for average cell length of B. subtilis / lengthening of cell length of B. subtilis versus untreated: 4 hours; for lengthening of cell length of B. subtilis versus untreated: compound at half of MIC; for filamentation of B. subtilis 168 cells: sub-lethal concentrations
Procedure: The log-phase culture of B. subtilis was tested with the two compounds with a final concentration of half of MIC value. A 1% DMSO solution was used as the control.

S. aureus FtsZ [1] = biological target: T1, S. aureus FtsZ (Staphylococcus aureus, UniProt P0A031); test: Light scattering assay (FtsZ polymerization); assay type: biochemical; conditions: S. aureus FtsZ 12 μM, 1 mM GTP, serial dilutions of compound
T1 construct: inferred from capture on a nickel chelating column and imidazole elution; made in house; host or cells: E. coli BL21
T1 sequence (P0A031 1-390): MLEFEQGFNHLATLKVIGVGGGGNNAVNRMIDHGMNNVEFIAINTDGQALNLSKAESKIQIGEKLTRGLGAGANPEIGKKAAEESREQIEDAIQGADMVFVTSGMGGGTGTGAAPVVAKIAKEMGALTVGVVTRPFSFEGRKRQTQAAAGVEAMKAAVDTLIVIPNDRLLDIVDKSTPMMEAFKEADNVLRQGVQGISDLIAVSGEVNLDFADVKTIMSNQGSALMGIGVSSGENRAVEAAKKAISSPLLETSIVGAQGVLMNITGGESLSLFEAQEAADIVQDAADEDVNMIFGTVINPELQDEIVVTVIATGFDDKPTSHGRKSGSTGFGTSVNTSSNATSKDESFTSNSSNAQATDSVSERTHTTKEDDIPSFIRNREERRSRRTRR
Procedure: Light scattering assay was used to determine the degree of FtsZ polymerization by measuring the 90° light scattering signal using a fluorescence spectrometer (Perkin-Elmer, USA). The excitation and emission wavelengths were set to 600 nm with a slit width of 5 nm. S. aureus FtsZ (12 μM) was incubated with serial dilutions of the compounds in 50 mM MOPS buffer (pH 6.8) at 25° C. for 10 minutes. The control contained 1% DMSO only. KCl (final concentration: 50 mM) and MgCl2 (final concentration: 10 mM) were then added to the mixture. The mixture was incubated at 37° C. for 8 minutes in order to establish a baseline. A final concentration of 1 mM GTP was added and the light scattering signal was measured for 1,500 seconds. The relative light scattering signals in experimental set-up were calculated with reference to the light scattering signal in control experiment. Three independent experiments were carried out for each compound concentration.

S. aureus FtsZ [2] = biological target: T1, S. aureus FtsZ; test: Transmission electron microscopy of FtsZ polymer morphology; assay type: biochemical; conditions: 100 μM compound, GTP 1 mM, 37° C. 15 minutes
Procedure: TEM provides a direct observation of FtsZ polymer morphology. Two promising compounds F332 and F361 were chosen for testing. S. aureus FtsZ ([…]) was incubated with the compounds at different concentrations in 50 mM MOPS buffer (pH 6.5) at 25° C. for 10 minutes. The control contained 1% DMSO only. KCl (final concentration: 50 mM) and MgCl2 (final concentration: 5 mM) were then added to the mixture. The mixture was incubated with GTP (final concentration: 1 mM) at 37° C. for 15 minutes. 10 μL reaction mixtures were applied on a glow-discharged Formvar carbon-coated copper grid (400 meshes) at 25° C. for 10 minutes. 10 μL of 0.5% phosphotungistic acid (PTA) was applied on the copper grid in order to negatively stain the proteins. The copper grid was allowed to air dry overnight.

Row | SMILES | MIC (B. subtilis 168) | MIC (E. coli) | MIC (S. aureus 29213) | average cell length of B. subtilis (B. subtilis 168 cells) | lengthening of cell length of B. subtilis versus untreated (B. subtilis 168 cells) | filamentation of B. subtilis 168 cells (B. subtilis 168 cells) | effect on light scattering signal of FtsZ assembly (polymerization) (S. aureus FtsZ [1]) | FtsZ polymer morphology (TEM) (S. aureus FtsZ [2])
1 | CCCCCCCCCNc1ccc(F)c(C(N)=O)c1F [Compound F332, 2,6-difluoro-3-(nonylamino)benzamide] | 3.13 µM (≈ 0.934 µg/mL) | > 100 µM | 12.5 µM (≈ 3.73 µg/mL) | 11.7±4.5 μm | three-fold lengthening | cause filamentation | inhibit the light scattering of FtsZ assembly | relatively short and straight single strand FtsZ protofilaments
2 | CCCCCCCCCN(C)c1ccc(F)c(C(N)=O)c1F [Compound F361, 2,6-difluoro-3-(methyl(nonyl)amino)benzamide] | 1.57 µM (≈ 0.49 µg/mL) | > 100 µM | 3.13 µM (≈ 0.978 µg/mL) | 21.1±1.8 μm | six-fold lengthening | cause filamentation | inhibit the light scattering of FtsZ assembly | relatively short and straight single strand FtsZ protofilaments
